ChEMBL document CHEMBL4017521, “Direct NMR Probing of Hydration Shells of Protein Ligand Interfaces and Its Application to Drug Design” (J Med Chem, 2017)
pIC50: −log10 of the molar value. Calls of active or inactive are those of the source. The rule behind the calls is not given here.

Each compound was assayed against Bromodomain-containing protein 4 (Homo sapiens, UniProt O60885) (assay: Inhibition of recombinant human N-terminal His6-tagged Brd4-BD1 expressed in Escherichia coli BL21(DE3) by LOGSY NMR titration method).

| Compound | pIC50 | inhibition |
| --- | --- | --- |
| Cc1nnc2c(N)cc(-c3cnn(C)c3Oc3ccccc3)nn12 | – | Active |
| Cc1nnc2ccc(N(C)Cc3ccc(F)c(F)c3)nn12 | – | Active |
| CNc1cc(N(C)Cc2ccccc2)nn2c(C)nnc12 | – | Active |

Now from value to compound:

| pIC50 | inhibition | Compound |
| --- | --- | --- |
| 4.62 | – | COc1ccc(-c2ccc3nnc(C)n3n2)cc1OC |
| 5.70 | – | Cc1nnc2ccc(-c3cnn(C)c3Oc3ccccc3)nn12 |
| – | Active | Cc1nnc2ccc(-c3ccccc3)nn12 |
| – | Active | CNc1cc(-c2ccccc2)nn2c(C)nnc12 |
